Test results taken from patent publication US20250090699A1, “FAP TARGETING CYCLIC PEPTIDES AND CONJUGATES THEREOF” (Novartis AG, priority 2023, published 2025).
pIC50, pKd: −log10 of the molar value. Where a name gives a salt, the structure may show the parent alone. Starred links: 1 amine or outer side, 2 acyl side, 3 side chain; linkers in the order of their positions; H or OH if unused. Non-standard residues stand in square brackets, D forms with d. Residues, ends and D or L forms follow the SMILES beside them. Groups on a side chain read outwards from the residue. Primed or numbered codes have the meaning given here. *: point of attachment. F4(amBAlaDOTALu) = lutetium complex of (S)-2,2',2''-(10-(2-((3-((4-(2-amino-2-carboxyethyl)benzyl)amino)-3-oxopropyl)amino)-2-oxoethyl)-1,4,7,10-tetraazacyclododecane-1,4,7-triyl)triacetic acid (Phe with 4-aminomethyl-βAla-DOTA-Lu), O=C([O-])CN1CCN(CC(=O)[O-])CCN(CC(=O)NCCC(=O)NCc2ccc(C[C@H](N[*:1])C(=O)[*:2])cc2)CCN(CC(=O)[O-])CC1.[Lu+3]; COpipzaa = 4-(carboxymethyl)piperazine-1-carbonyl, O=C(O)CN1CCN(C(=O)*)CC1; X8 = O=C(O)CN1CCN(CC(=O)O)CCN(CC(=O)O)C(Cc2ccc(NC(=S)*)cc2)CN(CC(=O)O)CC1; F(4amPEG2NHDOTA-Ga)″ = Phe with 4-aminomethyl-PEG2-NH-DOTA, Ga complex; F(4OEtNHRDOTAGA-Ga) = Phe with 4-O-ethyl-NH-DOTAGA, Ga complex; DOTA = O=C(O)CN1CCN(CC(=O)O)CCN(CC(=O)*)CCN(CC(=O)O)CC1; Trp(7-F) = N[C@@H](Cc1c[nH]c2c(F)cccc12)C(=O)O; Trp(7-aza) = N[C@@H](Cc1c[nH]c2ncccc12)C(=O)O; NOTA = O=C(O)CN1CCN(CC(=O)O)CCN(CC(=O)*)CC1; Phe(4-CH2NH2) = NCc1ccc(C[C@H](N)C(=O)O)cc1; Piperazinyl(4-CH2COOH) = O=C(O)CN1CCN(*)CC1; NMeCba = CN[C@@H](CC1CCC1)C(=O)O; NMeF = CN[C@@H](Cc1ccccc1)C(=O)O; dHyp = O=C(O)[C@H]1C[C@H](O)CN1; Ahp(2) = CCCCC[C@H](N)C(=O)O; hSer = N[C@@H](CCO)C(=O)O; AEEA = NCCOCCOCC(=O)O; CO = O=C([*:1])[*:2]; Propyl = CCC*

Key:
[1] = biological target: T1, mouse FAP (Mus musculus, UniProt P97321); test: Enzymatic FAP competition assay (Z-Gly-Pro-AMC fluorescence), mouse FAP; format: biochemical; settings: read-out: m. FAP, Enz., IC50
T1 construct: biotinylated His, Avi tag, mouse FAP (26-761, FAP-M82Q5); His; Avi tag (biotinylated); purchased AcroBiosystems FAP-M82Q5
T1 sequence (P97321 26-761): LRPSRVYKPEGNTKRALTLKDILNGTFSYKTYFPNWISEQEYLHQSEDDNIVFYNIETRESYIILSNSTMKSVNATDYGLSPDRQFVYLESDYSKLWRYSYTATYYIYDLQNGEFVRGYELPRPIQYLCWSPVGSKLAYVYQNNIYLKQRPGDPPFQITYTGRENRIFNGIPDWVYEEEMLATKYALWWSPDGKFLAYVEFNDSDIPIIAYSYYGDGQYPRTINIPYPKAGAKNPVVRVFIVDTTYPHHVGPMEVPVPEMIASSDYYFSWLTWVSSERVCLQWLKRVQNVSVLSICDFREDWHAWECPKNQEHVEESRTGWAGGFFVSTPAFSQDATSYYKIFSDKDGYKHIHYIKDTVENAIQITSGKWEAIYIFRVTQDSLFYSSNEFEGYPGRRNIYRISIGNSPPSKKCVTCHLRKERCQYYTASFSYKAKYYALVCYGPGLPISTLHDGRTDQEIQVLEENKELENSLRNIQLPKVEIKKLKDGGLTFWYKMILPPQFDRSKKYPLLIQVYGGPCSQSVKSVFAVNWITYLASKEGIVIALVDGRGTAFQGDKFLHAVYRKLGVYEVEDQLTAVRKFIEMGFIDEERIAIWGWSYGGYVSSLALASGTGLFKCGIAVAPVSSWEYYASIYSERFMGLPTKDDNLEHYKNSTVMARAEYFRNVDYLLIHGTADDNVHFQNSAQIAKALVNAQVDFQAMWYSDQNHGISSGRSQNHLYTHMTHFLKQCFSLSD
Procedure, shortened: (§1)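 Biotinylated His/Avi-tagged FAP ectodomain (human 26-760, mouse 26-761) at 0.01 nM, preincubated 24 h with peptides (14 concentrations, up to 1 μM) in pH 7.5 phosphate, 150 mM NaCl, 0.05% Tween20, 1% DMSO. Then 50 μM Z-Gly-Pro-AMC, 4 h at 22-24° C; AMC fluorescence (380/460 nm) gave IC50 from duplicate points.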

[2] = biological target: T1, mouse FAP; test: Surface plasmon resonance (SPR) for peptide affinity, mouse FAP; format: binding
Procedure, shortened: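 Biotinylated His/Avi-tagged FAP ectodomains (human 26-760, mouse 26-761) captured or immobilized on Biacore sensor chips; peptides run at 25 °C in HBS-EP+ pH 7.6 with 2% DMSO, single-cycle kinetics, 8 concentrations. KD from 1:1 binding-model fit of sensorgrams.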

[3] = biological target: T2, human FAP (Homo sapiens, UniProt Q12884); test: Enzymatic FAP competition assay (Z-Gly-Pro-AMC fluorescence), human FAP; format: biochemical; settings: read-out: h. FAP, Enz., IC50
T2 construct: the biotinylated His, Avi tag, human FAP (26-760, FAP-H82Q6); His; Avi tag (biotinylated); purchased AcroBiosystems FAP-H82Q6
T2 sequence (Q12884 26-760): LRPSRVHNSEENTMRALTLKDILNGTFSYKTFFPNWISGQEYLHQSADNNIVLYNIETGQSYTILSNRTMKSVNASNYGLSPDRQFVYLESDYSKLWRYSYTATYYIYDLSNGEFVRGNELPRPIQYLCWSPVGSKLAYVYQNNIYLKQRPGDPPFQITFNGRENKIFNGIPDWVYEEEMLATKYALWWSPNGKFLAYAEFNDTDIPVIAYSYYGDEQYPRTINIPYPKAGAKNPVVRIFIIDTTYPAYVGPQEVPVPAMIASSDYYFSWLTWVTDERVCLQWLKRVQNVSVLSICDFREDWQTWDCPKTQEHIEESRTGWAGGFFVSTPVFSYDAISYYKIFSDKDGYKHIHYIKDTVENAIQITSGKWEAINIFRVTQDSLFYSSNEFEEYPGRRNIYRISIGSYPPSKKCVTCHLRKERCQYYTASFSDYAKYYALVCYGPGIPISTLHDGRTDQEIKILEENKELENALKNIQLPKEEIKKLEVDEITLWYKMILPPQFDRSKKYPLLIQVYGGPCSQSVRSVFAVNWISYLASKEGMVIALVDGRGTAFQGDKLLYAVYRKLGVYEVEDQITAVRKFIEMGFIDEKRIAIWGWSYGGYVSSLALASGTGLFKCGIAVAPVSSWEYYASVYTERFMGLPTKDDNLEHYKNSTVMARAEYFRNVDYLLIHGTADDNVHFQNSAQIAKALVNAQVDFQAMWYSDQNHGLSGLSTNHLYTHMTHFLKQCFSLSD
Procedure, shortened: as §1

| Molecule | pIC50 [1] | pKd [2] | pIC50 [3] |
| --- | --- | --- | --- |
| CCCCC[C@@H]1NC(=O)[C@H](Cc2ccc(O)cc2)NC(=O)[C@H](Cc2ccccc2)N(C)C(=O)CNC(=O)[C@H](CCCCN)NC(=O)[C@H]2CCCN2C(=O)[C@H](CC(=O)O)NC(=O)[C@H](Cc2ccc(O)cc2)NC(=O)CNC(=O)[C@H](Cc2c[nH]c3c(F)cccc23)NC1=O [Example A23, Lys-Gly-NMePhe-Tyr-Ahp-W(7F)-Gly-Tyr-Asp-D-Pro, TFA salt] (cyclo([Ahp(2)][Trp(7-F)]GYD[dP]KG[NMeF]Y)) | 9.32 | 9.35 | 9.95 |
| CCCCC[C@@H]1NC(=O)[C@H](Cc2ccc(CNC(=O)CN3CCN(CC(=O)O)CCN(CC(=O)O)CCN(CC(=O)O)CC3)cc2)NC(=O)[C@H](Cc2ccccc2)N(C)C(=O)CNC(=O)CNC(=O)[C@H]2CCCN2C(=O)[C@H](CC(=O)O)NC(=O)[C@H](Cc2ccc(O)cc2)NC(=O)CNC(=O)[C@H](Cc2c[nH]c3ccccc23)NC1=O [Example B17, Gly-Gly-NMePhe-F(4amDOTA)-Ahp-Trp-Gly-Tyr-Asp-D-Pro, TFA salt] (cyclo([Ahp(2)]WGYD[dP]GG[NMeF][Phe(4-CH2NH2)](DOTA))) | 9.80 | 9.88 | 10.48 |
| CCCCC[C@@H]1NC(=O)[C@H](Cc2ccc(O)cc2)NC(=O)[C@H](Cc2ccccc2)N(C)C(=O)CNC(=O)[C@H](CCCCN)NC(=O)[C@H]2C[C@H](O)CN2C(=O)[C@H](CC(=O)O)NC(=O)[C@H](Cc2ccc(O)cc2)NC(=O)CNC(=O)[C@H](Cc2c[nH]c3ccccc23)NC1=O [Example A41, Lys-Gly-NMePhe-Tyr-Ahp-Trp-Gly-Tyr-Asp-D-trans4hyp, TFA salt] (cyclo([Ahp(2)]WGYD[dHyp]KG[NMeF]Y)) | 8.28 | 7.92 | 8.66 |
| Gly-Gly-NMePhe-F4(amBAlaDOTALu)-Ahp-Trp-Gly-Tyr-Asp-D-Pro (cyclo(GG[NMeF][F4(amBAlaDOTALu)][Ahp(2)]WGYD[dP]); also: Lu complex) [Example C10] | 10.62 | 10.48 | 11.00 |
| CCCCC[C@@H]1NC(=O)[C@H](Cc2ccc(O)cc2)NC(=O)[C@H](Cc2ccccc2)N(C)C(=O)CNC(=O)[C@H](CCCCN)NC(=O)[C@H]2CCCN2C(=O)[C@H](CC(=O)O)NC(=O)[C@H](Cc2ccc(O)cc2)NC(=O)CNC(=O)[C@H](Cc2c[nH]c3ncccc23)NC1=O [Example A26, 2-((3S,9S,12S,15S,18S,24S,27S,32aR)-18-((1H-pyrrolo[2,3-b]pyridin-3-yl)methyl)-3-(4-aminobutyl)-9-benzyl-12,24-bis(4-hydroxybenzyl)-8-methyl-1,4,7,10,13,16,19,22,25,28-decaoxo-15-pentyldotriacontahydropyrrolo[1,2-a][1,4,7,10,13,16,19,22,25,28]decaazacyclotriacontin-27-yl)acetic acid TFA salt] (cyclo([Ahp(2)][Trp(7-aza)]GYD[dP]KG[NMeF]Y)) | 8.80 | 8.57 | 9.33 |
| CCCOCC[C@@H]1NC(=O)[C@H](Cc2ccc(CNC(=O)COCCOCCNC(=O)CN3CCN(CC(=O)O)CCN(CC(=O)O)CC3)cc2)NC(=O)[C@H](Cc2ccccc2)N(C)C(=O)CNC(=O)CNC(=O)[C@H]2CCCN2C(=O)[C@H](CC(=O)O)NC(=O)[C@H](CCCCNC(=O)N2CCN(CC(=O)O)CC2)NC(=O)CNC(=O)[C@H](Cc2c[nH]c3ccccc23)NC1=O [Example B34, Gly-Gly-NMePhe-F(4amPEG2NHNOTA-hS(Pr)-Trp-Gly-K(COpipzaa)-Asp-D-Pro] (cyclo(D[dP]GG[NMeF][Phe(4-CH2NH2)]([AEEA-NOTA])[hSer](Propyl)WGK([CO-Piperazinyl(4-CH2COOH)]))) | 10.77 | > 10.47 | 11.15 |
| Gly-Gly-NMePhe-F(4OEtNHRDOTAGA-Ga)-Ahp-Trp-Gly-Tyr-Asp-D-Pro (cyclo(GG[NMeF][F(4OEtNHRDOTAGA-Ga)][Ahp(2)]WGYD[dP]); also: Ga complex of DOTAGA) [Example C38] | 10.32 | 10.43 | 10.92 |
| Gly-Gly-NMePhe-F(4amPeG2NHDOTA-Ga)-Ahp-Trp-Gly-K(COpipzaa)-asp-D-Pro (cyclo(GG[NMeF][F(4amPEG2NHDOTA-Ga)″][Ahp(2)]WGK(COpipzaa)D[dP]); also: Ga in DOTA chelate) [Example C46] | 10.49 | > 10.80 | 10.92 |
| CCCOCC[C@@H]1NC(=O)[C@H](Cc2ccc(CNC(=O)COCCOCCNC(=S)Nc3ccc(CC4CN(CC(=O)O)CCN(CC(=O)O)CCN(CC(=O)O)CCN4CC(=O)O)cc3)cc2)NC(=O)[C@H](Cc2ccccc2)N(C)C(=O)CNC(=O)CNC(=O)[C@H]2CCCN2C(=O)[C@H](CC(=O)O)NC(=O)[C@H](CCCCNC(=O)N2CCN(CC(=O)O)CC2)NC(=O)CNC(=O)[C@H](Cc2c[nH]c3ccccc23)NC1=O (stereo partly drawn) [Example B35, Gly-Gly-NMePhe-F(4amPEG2NH-p-SCN-DOTA-hS(Pr)-Trp-Gly-K(COpipzaa)-Asp-D-Pro] (cyclo(D[dP]GG[NMeF][Phe(4-CH2NH2)]([AEEA-X8])[hSer](Propyl)WGK([CO-Piperazinyl(4-CH2COOH)]))) | 10.26 | 10.23 | 10.68 |
| CCCCC[C@@H]1NC(=O)[C@H](Cc2ccc(O)cc2)NC(=O)[C@H](Cc2ccccc2)N(C)C(=O)CNC(=O)[C@H](CCO)NC(=O)[C@H]2CCCN2C(=O)[C@H](CC(=O)O)NC(=O)[C@H](Cc2ccc(O)cc2)NC(=O)CNC(=O)[C@H](Cc2c[nH]c3ccccc23)NC1=O [Example A42, hSer-Gly-NMePhe-Tyr-Ahp-Trp-Gly-Tyr-Asp-D-Pro] (cyclo([Ahp(2)]WGYD[dP][hSer]G[NMeF]Y)) | 9.44 | 9.70 | 10.05 |
| CCCCC[C@@H]1NC(=O)[C@H](Cc2ccc(O)cc2)NC(=O)[C@H](CC2CCC2)N(C)C(=O)CNC(=O)CNC(=O)[C@H]2CCCN2C(=O)[C@H](CC(=O)O)NC(=O)[C@H](Cc2ccc(O)cc2)NC(=O)CNC(=O)[C@H](Cc2c[nH]c3ccccc23)NC1=O [Example A62, Gly-Gly-NMecBuA-Tyr-Ahp-Trp-Gly-Tyr-Asp-D-Pro] (cyclo([Ahp(2)]WGYD[dP]GG[NMeCba]Y)) | 9.51 | 9.49 | 10.20 |
